Data on four molecules can be found in patent US20060111331A1, “Gave10 agonists for treating inflammation” (Aventis Pharmaceuticals Inc., priority 2004, published 2006).

The structures appear in SMILES notation.

Holding throughout (type): cell-based
Assay [1] has as its target T1, GAVE10 (Homo sapiens, UniProt Q8TDU6).
T1 construct: expressed in transfected cells; host or cells: PSC cells
T1 sequence (Q8TDU6 1-330): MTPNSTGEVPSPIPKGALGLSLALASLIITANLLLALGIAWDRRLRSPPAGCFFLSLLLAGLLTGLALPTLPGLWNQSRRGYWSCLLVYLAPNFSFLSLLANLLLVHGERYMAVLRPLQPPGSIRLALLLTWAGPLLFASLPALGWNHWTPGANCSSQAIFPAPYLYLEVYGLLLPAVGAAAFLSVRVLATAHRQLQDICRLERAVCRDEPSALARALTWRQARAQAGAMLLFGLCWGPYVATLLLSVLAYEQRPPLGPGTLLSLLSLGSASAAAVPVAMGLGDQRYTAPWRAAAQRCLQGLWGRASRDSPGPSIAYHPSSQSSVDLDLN
As to the kind of experiment: FLIPR assay, PSC cells transfected with GAVE10 (calcium signaling). The conditions noted are these: PSC cells alone vs PSC cells transfected with GAVE10; FIG. 1. As for the experimental part: Compounds A, B, and C and lithocholic acid (LCA) were incubated, respectively, with PSC cells alone and PSC cells transfected with GAVE10, and the cells were then assayed in a FLIPR® assay.
To screen for agonists of human GAVE10, hGAVE10 was coupled artificially to a Gq mechanism. Activation of the Gq mechanism stimulates the release of Ca^2+ from sarcoplasmic reticulum vesicles within the cell. The Ca^2+ was released into the cytoplasm where it can be detected using Ca^2+ chelating dyes. A Fluorometric Imaging Plate Reader (i.e., a FLIPR® apparatus, Molecular Devices) was used to monitor any resulting changes in fluorescence. The activity of an agonist was reflected by any increase in fluorescence.
CHO-KI cells expressing hGAVE10 were pre-engineered to express an indiscriminate form of Gq protein (G016). To prepare such cells, Gα16-coupled CHO cells were obtained commercially (Molecular Devices LIVEWARE™ cells, Catalog No. RD-HGAI6) and the protocol in Example 2 followed to facilitate expression of hGAVE10 in those cells. The cells were maintained in log phase of growth at 37° C. and 5% CO2 in F12 Ham's media (Gibco/BRL, Catalog No. 11765-054) containing 10% fetal bovine serum, 100 IU/ml penicillin (Gibco/BRL, Catalog No. 15140-148), 100 μg/ml streptomycin (Catalog No. 15140-148, Gibco/BRL), 400 μg/ml genetecin (G418) (Gibco/BRL, Catalog No. 10131-035) and 200 μg/ml zeocin (Invitrogen, Catalog No. R250-05). […]
The CCD camera (Princeton Instruments) of the FLIPR® II (Molecular Devices) instrument was set at an f-stop of 2.0 and an exposure of 0.4 seconds. […] Changes in fluorescence were measured for 10 seconds prior to compound addition. After the addition of the compound, fluorescence was measured every second for the first minute followed by exposures taken every six seconds for a total experimental analysis time of three minutes. […] The maximum fluorescence changes for the first 80 scans were recorded as a measure of agonist activity and compared to the maximum fluorescence change induced by 10 μM ATP (Sigma A9062).

Assay [2] concerns the target T1, GAVE10. As to the kind of experiment: cAMP assay, PSC cells transfected with GAVE10. The conditions noted are these: PSC cells alone vs PSC cells transfected with GAVE10; FIG. 2. Here is the method:
Compounds A, B, and C and LCA were incubated, respectively, with PSC cells alone and PSC cells transfected with GAVE 10, and the cells were then assayed in a cAMP assay.

For assay [3], the system named is TNFα release in mouse macrophages. As to the kind of experiment: TNFα release assay in mouse macrophages. The conditions noted are these: FIG. 3.
The test system of assay [4] is IL-6 production in mouse macrophages. As to the kind of experiment: IL-6 production in mouse macrophages. The conditions noted are these: male and female, effect more pronounced in male, FIG. 4.

Take `CC(CCC(=O)NCC[N+](C)(C)C)C1CCC2C3CCC4CC(O)CCC4(C)C3CC(O)C12C` (stereo not drawn) [Compound A]: the “activation of calcium-signaling pathways via GAVE10 (FLIPR)” value in assay [1] is reported as “bind to GAVE10 to activate calcium-signaling pathways”. The “increase of intracellular cAMP via GAVE10 activation” value (shortened to “increase”) in assay [2] is on record as “activate GAVE10 to increase intracellular cAMP”. For the same molecule, in assay [3], the “inhibition of TNFα release” value is listed as “inhibited TNFα release”.
Take `CC(CCC(=O)N1CCN(C)CC1)C1CCC2C3CCC4CC(O)CCC4(C)C3CC(O)C12C` (stereo not drawn) [Compound B]: the “activation of calcium-signaling pathways via GAVE10 (FLIPR)” value in assay [1] is “bind to GAVE10 to activate calcium-signaling pathways”. In assay [2], the “increase” value is given as “activate GAVE10 to increase intracellular cAMP”. Moreover, the “inhibition of TNFα release” value in assay [3] is reported as “inhibited TNFα release”.
`CC(CCC(=O)NCCN1CCOCC1)C1CCC2C3CCC4CC(O)CCC4(C)C3CC(O)C12C` (stereo not drawn) [Compound C]: the “activation of calcium-signaling pathways via GAVE10 (FLIPR)” value in assay [1] is reported as “bind to GAVE10 to activate calcium-signaling pathways”. The “increase” value in assay [2] is recorded as “activate GAVE10 to increase intracellular cAMP”.
As to `C[C@H](CCC(=O)O)[C@H]1CC[C@H]2[C@@H]3CC[C@@H]4C[C@H](O)CC[C@]4(C)[C@H]3C[C@H](O)[C@]12C` [DCA], the “inhibition of IL-6 production” value in assay [4] is “inhibit IL-6 production”.
